Experimental data: ChEMBL document CHEMBL3046594, “Bioactive metabolites from an endophytic fungus of Aspergillus species isolated from seeds of Gloriosa superba Linn” (Med Chem Res, 2013)
≈ marks a conversion by molar mass, not a printed value. Calls of active or inactive are those of the source. No cut-off for these calls is given here.

How the values were obtained:
Candida albicans [1] = test: Antifungal activity against Candida albicans MTCC 3018 assessed as growth inhibition at 2 mg/mL after 48 hr by disk diffusion method; assay type: functional
Staphylococcus aureus [2] = test: Antibacterial activity against Staphylococcus aureus MTCC 96 assessed as growth inhibition after 24 hr by broth dilution method; assay type: functional; conditions: MTCC 96, 24 h
Pseudomonas aeruginosa [3] = test: Antibacterial activity against Pseudomonas aeruginosa MTCC 2642 assessed as growth inhibition at 2 mg/mL after 24 hr by disk diffusion method; assay type: functional
Escherichia coli [4] = test: Antibacterial activity against Escherichia coli MTCC 82 assessed as growth inhibition after 24 hr by broth dilution method; assay type: functional; conditions: MTCC 82, 24 h
Saccharomyces cerevisiae [5] = test: Antifungal activity against Saccharomyces cerevisiae MTCC 172 assessed as growth inhibition after 48 hr by broth dilution method; assay type: functional
Salmonella typhi [6] = test: Antibacterial activity against Salmonella enterica subsp. enterica serovar Typhi MTCC 1251 assessed as growth inhibition at 2 mg/mL after 24 hr by disk diffusion method; assay type: functional, organism-based
Salmonella typhi [7] = test: Antibacterial activity against Salmonella enterica subsp. enterica serovar Typhi MTCC 1251 assessed as growth inhibition after 24 hr by broth dilution method; assay type: functional, organism-based
Saccharomyces cerevisiae [8] = test: Antifungal activity against Saccharomyces cerevisiae MTCC 172 assessed as growth inhibition at 2 mg/mL after 48 hr by disk diffusion method; assay type: functional; conditions: MTCC 172, 48 h, read-out: DIZ
Bacillus subtilis [9] = test: Antibacterial activity against Bacillus subtilis MTCC 2451 assessed as growth inhibition after 24 hr by broth dilution method; assay type: functional; conditions: MTCC 2451, 24 h
Bacillus subtilis [10] = test: Antibacterial activity against Bacillus subtilis MTCC 2451 assessed as growth inhibition at 2 mg/mL after 24 hr by disk diffusion method; assay type: functional; conditions: MTCC 2451, 24 h, read-out: DIZ
Goffeauzyma gastrica [11] = test: Antifungal activity against Cryptococcus gastricus MTCC 1715 assessed as growth inhibition at 2 mg/mL after 48 hr by disk diffusion method; assay type: functional
Staphylococcus aureus [12] = test: Antibacterial activity against Staphylococcus aureus MTCC 96 assessed as growth inhibition at 2 mg/mL after 24 hr by disk diffusion method; assay type: functional; conditions: MTCC 96, 24 h, read-out: DIZ
Candida albicans [13] = test: Antifungal activity against Candida albicans MTCC 3018 assessed as growth inhibition after 48 hr by broth dilution method; assay type: functional
Pseudomonas aeruginosa [14] = test: Antibacterial activity against Pseudomonas aeruginosa MTCC 2642 assessed as growth inhibition after 24 hr by broth dilution method; assay type: functional
Goffeauzyma gastrica [15] = test: Antifungal activity against Cryptococcus gastricus MTCC 1715 assessed as growth inhibition after 48 hr by broth dilution method; assay type: functional
Escherichia coli [16] = test: Antibacterial activity against Escherichia coli MTCC 82 assessed as growth inhibition at 2 mg/mL after 24 hr by disk diffusion method; assay type: functional; conditions: MTCC 82, 24 h, read-out: DIZ
Bacillus subtilis [17] = test: Antibacterial activity against Bacillus subtilis MTCC 2451 assessed as growth inhibition at 5 ug/disk after 24 hr by disk diffusion method; assay type: functional; conditions: MTCC 2451, 24 h, read-out: DIZ
Escherichia coli [18] = test: Antibacterial activity against Escherichia coli MTCC 82 assessed as growth inhibition at 5 ug/disk after 24 hr by disk diffusion method; assay type: functional; conditions: MTCC 82, 24 h, read-out: DIZ
Salmonella typhi [19] = test: Antibacterial activity against Salmonella enterica subsp. enterica serovar Typhi MTCC 1251 assessed as growth inhibition at 5 ug/disk after 24 hr by disk diffusion method; assay type: functional; conditions: MTCC 1251, 24 h, read-out: DIZ
Pseudomonas aeruginosa [20] = test: Antibacterial activity against Pseudomonas aeruginosa MTCC 2642 assessed as growth inhibition at 5 ug/disk after 24 hr by disk diffusion method; assay type: functional; conditions: MTCC 2642, 24 h, read-out: DIZ
Staphylococcus aureus [21] = test: Antibacterial activity against Staphylococcus aureus MTCC 96 assessed as growth inhibition at 5 ug/disk after 24 hr by disk diffusion method; assay type: functional; conditions: MTCC 96, 24 h, read-out: DIZ
Saccharomyces cerevisiae [22] = test: Antifungal activity against Saccharomyces cerevisiae MTCC 172 assessed as growth inhibition at 10 ug/disk after 48 hr by disk diffusion method; assay type: functional; conditions: MTCC 172, 48 h, read-out: DIZ
Candida albicans [23] = test: Antifungal activity against Candida albicans MTCC 3018 assessed as growth inhibition at 10 ug/disk after 48 hr by disk diffusion method; assay type: functional; conditions: MTCC 3018, 48 h, read-out: DIZ
Goffeauzyma gastrica [24] = test: Antifungal activity against Cryptococcus gastricus MTCC 1715 assessed as growth inhibition at 10 ug/disk after 48 hr by disk diffusion method; assay type: functional; conditions: MTCC 1715, 48 h, read-out: DIZ
OVCAR-5 [25] = test: Cytotoxicity against Homo sapiens (human) OVCAR5 cells assessed as growth inhibition at 50 uM after 48 hr by SRB assay; assay type: functional; conditions: OVCAR-5, 48 h, read-out: GI
MCF7 [26] = test: Cytotoxicity against Homo sapiens (human) MCF7 cells assessed as growth inhibition at 30 uM after 48 hr by SRB assay; assay type: functional; conditions: MCF7, 48 h, read-out: GI
THP-1 [27] = test: Cytotoxicity against Homo sapiens (human) THP1 cells assessed as growth inhibition after 48 hr by SRB assay; assay type: functional, cell-based; conditions: THP-1, 48 h
MCF7 [28] = test: Cytotoxicity against Homo sapiens (human) MCF7 cells assessed as growth inhibition at 50 uM after 48 hr by SRB assay; assay type: functional; conditions: MCF7, 48 h, read-out: GI
THP-1 [29] = test: Cytotoxicity against Homo sapiens (human) THP1 cells assessed as growth inhibition at 10 uM after 48 hr by SRB assay; assay type: functional; conditions: THP-1, 48 h, read-out: GI
MCF7 [30] = test: Cytotoxicity against Homo sapiens (human) MCF7 cells assessed as growth inhibition after 48 hr by SRB assay; assay type: functional, cell-based; conditions: MCF7, 48 h
THP-1 [31] = test: Cytotoxicity against Homo sapiens (human) THP1 cells assessed as growth inhibition at 30 uM after 48 hr by SRB assay; assay type: functional; conditions: THP-1, 48 h, read-out: GI
THP-1 [32] = test: Cytotoxicity against Homo sapiens (human) THP1 cells assessed as growth inhibition at 50 uM after 48 hr by SRB assay; assay type: functional; conditions: THP-1, 48 h, read-out: GI
MCF7 [33] = test: Cytotoxicity against Homo sapiens (human) MCF7 cells assessed as growth inhibition at 100 uM after 48 hr by SRB assay; assay type: functional; conditions: MCF7, 48 h, read-out: GI
CV-1 [34] = test: Cytotoxicity against Chlorocebus aethiops (African green monkey) CV1 cells assessed as growth inhibition at 30 uM after 48 hr by SRB assay; assay type: functional; conditions: CV-1, 48 h, read-out: GI
A549 = test: Cytotoxicity against Homo sapiens (human) A549 cells assessed as growth inhibition at 100 uM after 48 hr by SRB assay; assay type: functional; conditions: A549, 48 h, read-out: GI
MCF7 [35] = test: Cytotoxicity against Homo sapiens (human) MCF7 cells assessed as growth inhibition at 10 uM after 48 hr by SRB assay; assay type: functional; conditions: MCF7, 48 h, read-out: GI
CV-1 [36] = test: Cytotoxicity against Chlorocebus aethiops (African green monkey) CV1 cells assessed as growth inhibition at 100 uM after 48 hr by SRB assay; assay type: functional; conditions: CV-1, 48 h, read-out: GI
OVCAR-5 [37] = test: Cytotoxicity against Homo sapiens (human) OVCAR5 cells assessed as growth inhibition at 100 uM after 48 hr by SRB assay; assay type: functional; conditions: OVCAR-5, 48 h, read-out: GI
THP-1 [38] = test: Cytotoxicity against Homo sapiens (human) THP1 cells assessed as growth inhibition at 100 uM after 48 hr by SRB assay; assay type: functional; conditions: THP-1, 48 h, read-out: GI
OVCAR-5 [39] = test: Cytotoxicity against Homo sapiens (human) OVCAR5 cells assessed as growth inhibition at 30 uM after 48 hr by SRB assay; assay type: functional; conditions: OVCAR-5, 48 h, read-out: GI
CV-1 [40] = test: Cytotoxicity against Chlorocebus aethiops (African green monkey) CV1 cells assessed as growth inhibition at 50 uM after 48 hr by SRB assay; assay type: functional; conditions: CV-1, 48 h, read-out: GI
OVCAR-5 [41] = test: Cytotoxicity against Homo sapiens (human) OVCAR5 cells assessed as growth inhibition at 10 uM after 48 hr by SRB assay; assay type: functional; conditions: OVCAR-5, 48 h, read-out: GI

What does the source list for `O=Cc1ccc(CO)o1` [AES-103]?
growth inhibition (GI) (Candida albicans [1]): inactive; MIC (Staphylococcus aureus [2]): 200 µg/mL (≈ 1590 µM); growth inhibition (GI) (Pseudomonas aeruginosa [3]): inactive; MIC (Escherichia coli [4]): 400 µg/mL (≈ 3170 µM); MIC (Saccharomyces cerevisiae [5]): inactive; growth inhibition (GI) (Salmonella typhi [6]): inactive; MIC (Salmonella typhi [7]): inactive; zone of inhibition at 2000 µg/mL (Saccharomyces cerevisiae [8]): 8.1 mm; MIC (Bacillus subtilis [9]): 100 µg/mL (≈ 793 µM); zone of inhibition at 2000 µg/mL (Bacillus subtilis [10]): 11.5 mm; growth inhibition (GI) (Goffeauzyma gastrica [11]): inactive; zone of inhibition at 2000 µg/mL (Staphylococcus aureus [12]): 13.1 mm; MIC (Candida albicans [13]): inactive; MIC (Pseudomonas aeruginosa [14]): inactive; MIC (Goffeauzyma gastrica [15]): inactive; zone of inhibition at 2000 µg/mL (Escherichia coli [16]): 9 mm

For `CC1(C)S[C@@H]2[C@H](NC(=O)[C@H](N)c3ccc(O)cc3)C(=O)N2[C@H]1C(=O)O` [AMOXICILLIN], which zone of inhibition at 5 µg/disc (Bacillus subtilis [17]) is on record?
Its zone of inhibition at 5 µg/disc is 20 mm.

What about the zone of inhibition at 5 µg/disc (Escherichia coli [18]) of the same compound?
The zone of inhibition at 5 µg/disc was 20 mm.

And the zone of inhibition at 5 µg/disc (Salmonella typhi [19])?
The zone of inhibition at 5 µg/disc was 18 mm.

And the zone of inhibition at 5 µg/disc (Pseudomonas aeruginosa [20])?
The zone of inhibition at 5 µg/disc was 19 mm.

And the zone of inhibition at 5 µg/disc (Staphylococcus aureus [21])?
Its zone of inhibition at 5 µg/disc is 21 mm.

`OC(Cn1cncn1)(Cn1cncn1)c1ccc(F)cc1F` [FLUCONAZOLE] was tested. Which zone of inhibition at 10 µg/disc (Saccharomyces cerevisiae [22]) did it give?
The zone of inhibition at 10 µg/disc was 21 mm.

And the zone of inhibition at 10 µg/disc (Candida albicans [23])?
The zone of inhibition at 10 µg/disc was 20 mm.

And the zone of inhibition at 10 µg/disc (Goffeauzyma gastrica [24])?
The zone of inhibition at 10 µg/disc was 19.7 mm.

What does the source list for `CC(=O)NC12C=CC(=O)C=CC1c1c(cc(O)c(O)c1O)CC2C` (stereo not drawn)?
inhibition of growth at 50 µM (OVCAR-5 [25]): 33%; inhibition of growth at 30 µM (MCF7 [26]): 33%; IC50 (THP-1 [27]): 30 µg/mL (≈ 91.1 µM); inhibition of growth at 50 µM (MCF7 [28]): 52%; zone of inhibition at 2000 µg/mL (Candida albicans [1]; MTCC 3018, 48 h, read-out: DIZ): 18.9 mm; inhibition of growth at 10 µM (THP-1 [29]): 48%; MIC (Staphylococcus aureus [2]): 25 µg/mL (≈ 75.9 µM); IC50 (MCF7 [30]): 50 µg/mL (≈ 152 µM); inhibition of growth at 30 µM (THP-1 [31]): 55%; zone of inhibition at 2000 µg/mL (Pseudomonas aeruginosa [3]; MTCC 2642, 24 h, read-out: DIZ): 11.9 mm; MIC (Escherichia coli [4]): 100 µg/mL (≈ 304 µM); inhibition of growth at 50 µM (THP-1 [32]): 67%; MIC (Saccharomyces cerevisiae [5]; MTCC 172, 48 h): 25 µg/mL (≈ 75.9 µM); inhibition of growth at 100 µM (MCF7 [33]): 70%; inhibition of growth at 30 µM (CV-1 [34]): 13%; inhibition of growth at 100 µM (A549): 23%; inhibition of growth at 10 µM (MCF7 [35]): 26%; inhibition of growth at 100 µM (CV-1 [36]): 35%; growth inhibition (GI) (Salmonella typhi [6]): inactive; MIC (Salmonella typhi [7]): inactive; inhibition of growth at 100 µM (OVCAR-5 [37]): 43%; zone of inhibition at 2000 µg/mL (Saccharomyces cerevisiae [8]): 16.9 mm; inhibition of growth at 100 µM (THP-1 [38]): 80%; MIC (Bacillus subtilis [9]): 50 µg/mL (≈ 152 µM); zone of inhibition at 2000 µg/mL (Bacillus subtilis [10]): 17.5 mm; inhibition of growth at 30 µM (OVCAR-5 [39]): 17%; inhibition of growth at 50 µM (CV-1 [40]): 19%; zone of inhibition at 2000 µg/mL (Goffeauzyma gastrica [11]; MTCC 1715, 48 h, read-out: DIZ): 15.3 mm; inhibition of growth at 10 µM (OVCAR-5 [41]): 9%; zone of inhibition at 2000 µg/mL (Staphylococcus aureus [12]): 15.7 mm; MIC (Candida albicans [13]; MTCC 3018, 48 h): 12.5 µg/mL (≈ 38 µM); MIC (Pseudomonas aeruginosa [14]; MTCC 2642, 24 h): > 100 µg/mL; MIC (Goffeauzyma gastrica [15]; MTCC 1715, 48 h): 50 µg/mL (≈ 152 µM); zone of inhibition at 2000 µg/mL (Escherichia coli [16]): 13.3 mm
